Assay results published in PubChem BioAssay (NCI).
Where “and” joins values, the source holds several entries; their conditions need not be identical. Equal entries are not always repeated.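 Values below derive from 48-hour exposures of cells grown in 96-well plates, with endpoints linearly interpolated between the two concentrations bracketing the appropriate inhibition level. GI50 marks 50% less growth. TGI is the concentration that stops growth completely.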 *1 amine or outer side, *2 acyl side, *3 side chain or, on linkers, in order; H or OH if unused. Where a SMILES comes first, the peptide text is derived from it. The star is where a group is joined. γGlu = O=C(O)[CH](CCC(=O)[*:2])N[*:1]; NHOH = ON*

Legend:
Assay in all cases: DTP human tumour cell line panel, 48 h
[1] = tested on: MDA-N
[2] = tested on: NCI-H23 lung
[3] = tested on: OVCAR-4 ovarian
[4] = tested on: SK-MEL-5 melanoma

c1ccc(C/C(=N\Nc2nc3ccccc3[nH]2)c2ccccn2)cc1
TGI [1]: 12.8 µM
TGI [2]: 13.5 µM
TGI [3]: 10.4 µM
TGI [4]: 4.65 µM

CCOC(=O)N1CCC2(CC1)C[C@](Sc1ccccc1)(C(C)=O)[C@H](C)O2
TGI [1]: > 100 µM
TGI [2]: > 100 µM
TGI [3]: > 100 µM
TGI [4]: > 100 µM

CSC(=Nc1ccccc1)c1c(C)[nH]n(-c2ccccc2)c1=O
TGI [1]: > 100 µM
TGI [2]: > 100 µM
TGI [3]: > 100 µM
TGI [4]: > 100 µM

O=[N+]([O-])C(/C(Cl)=C(/Cl)N1CCOCC1)=C1\Nc2ccccc2O1
TGI [2]: > 100 µM
TGI [3]: > 100 µM

CC(C)(C)OC(=O)C1C(=O)NC(=O)CC1C(OCc1ccccc1)C(OCc1ccccc1)C(COCc1ccccc1)OCc1ccccc1 (stereo not drawn)
TGI [1]: > 100 µM
TGI [2]: > 100 µM
TGI [3]: > 100 µM
GI50 [4]: > 100 µM and 28.4 µM
TGI [4]: > 100 µM

O=C(CN1CCCCC1)c1ccc2[nH]c(=O)oc2c1
TGI [1]: > 100 µM
TGI [2]: > 100 µM
TGI [4]: > 100 µM

COc1cc(/C=C2\CC3C4CC=C5C[C@@H](O)CC[C@]5(C)C4CC[C@]3(C)\C2=N\O)cc(OC)c1OC (stereo partly drawn)
TGI [1]: 69.6 µM
TGI [2]: 55.5 µM
TGI [3]: 68.8 µM
TGI [4]: 19.2 µM

COC(=O)C12C(=O)CC3CCC1C32C(=O)OC (stereo not drawn)
TGI [1]: > 100 µM
TGI [2]: > 100 µM
TGI [3]: > 100 µM
TGI [4]: > 100 µM

Cc1ccc(S(=O)(=O)N(CC(O)COc2ccccc2)c2c(F)c(F)c(F)c(F)c2F)cc1 (stereo not drawn)
TGI [1]: 32.7 µM
TGI [2]: 29.6 µM
TGI [3]: 29.2 µM
TGI [4]: 25.5 µM

Cc1c2ccccc2c(/C=N/NC(=O)CSCC(=O)N/N=C/c2c3ccccc3c(C)c3ccccc23)c2ccccc12
TGI [2]: 50.7 µM
TGI [3]: > 100 µM
TGI [4]: > 100 µM

CC(Nc1cccc(Cl)c1)c1ccncc1 (stereo not drawn)
TGI [1]: > 100 µM
TGI [2]: > 100 µM
TGI [3]: > 100 µM
TGI [4]: > 100 µM

CN(C(=O)Cc1cc(Cl)c(Cl)cc1NC(=O)CCCN)[C@H]1CCCC[C@@H]1N1CCCC1
TGI [1]: 30.7 µM
TGI [2]: > 100 µM
TGI [3]: > 100 µM
TGI [4]: 29.9 µM

O=C1O/C(=C(\Br)c2ccc([N+](=O)[O-])cc2)c2ccccc21
TGI [1]: > 100 µM
TGI [2]: > 100 µM
TGI [3]: > 100 µM
TGI [4]: > 100 µM

COP(=O)(OC)[C@@](O)(c1ccccc1)[C@@H](O)[C@H](O)c1ccccc1
TGI [1]: > 100 µM
TGI [2]: > 100 µM
TGI [3]: > 100 µM
TGI [4]: > 100 µM

Cc1cc(C)c2c(-c3ccccc3)cc(=O)[nH]c2c1
TGI [1]: > 100 µM
TGI [2]: > 100 µM
TGI [3]: > 100 µM
TGI [4]: > 100 µM

COc1ccc(Nc2nc3ccccc3nc2-c2cccs2)cc1OC
TGI [1]: > 10 µM
TGI [2]: > 10 µM
TGI [3]: > 10 µM
TGI [4]: > 10 µM

CC1=NN(c2ccccc2)C(=O)/C1=C1\SC(c2ccccc2)(c2ccccc2)c2ccccc21
TGI [1]: > 100 µM
TGI [2]: > 100 µM
TGI [3]: > 100 µM
TGI [4]: > 100 µM

Cc1cccc(C)c1NC(=S)N/C=C(\C#N)C(N)=O
TGI [1]: > 100 µM
TGI [2]: > 100 µM
TGI [3]: > 100 µM
TGI [4]: > 100 µM

CN(C)CC1CCC/C(=C\c2ccc(Cl)c(Cl)c2)C1=O (stereo not drawn)
TGI [1]: 12.7 µM
TGI [2]: 23.8 µM
TGI [3]: 14.3 µM
TGI [4]: 22.7 µM

OC1C2CN3CCN(C2)CC1(c1ccccc1)C3 (stereo not drawn)
TGI [1]: > 100 µM
TGI [2]: > 100 µM
TGI [3]: > 100 µM
TGI [4]: > 100 µM

COc1cc(O)c2c(=O)c3cccc(C)c3[nH]c2c1
TGI [1]: > 10 µM
TGI [2]: > 10 µM
TGI [3]: > 10 µM
TGI [4]: > 10 µM

NC(=O)N/N=C(\Cc1cc(=O)oc2cc(O)ccc12)C(=O)Nc1ccccc1C(N)=O
TGI [1]: > 100 µM
TGI [2]: > 100 µM
TGI [3]: > 100 µM
TGI [4]: > 100 µM

CCOC(=O)CCCN
TGI [1]: > 100 µM
TGI [2]: > 100 µM
TGI [3]: > 100 µM
TGI [4]: > 100 µM

Fc1ccc(/C=C2\COCC3=C2NC(=S)NC3c2ccc(F)cc2)cc1 (stereo not drawn)
TGI [1]: 34.2 µM
TGI [2]: 50.7 µM
TGI [3]: 38.5 µM
TGI [4]: 33.5 µM

NC(CCC(=O)NC(CCC(=O)NO)C(=O)NCC(=O)O)C(=O)O (stereo not drawn) (γGlu-Glu(NHOH)-Gly-OH; configuration not given here)
TGI [1]: > 100 µM
TGI [2]: > 100 µM
TGI [3]: > 100 µM
TGI [4]: > 100 µM

COc1ccc(C2c3cc4c(cc3OC(N3CCOCC3)C2C)OCO4)cc1OC (stereo not drawn)
TGI [1]: 4.65 µM
TGI [2]: > 89.6 µM
TGI [3]: > 100 µM
TGI [4]: > 100 µM

CC(C)(C)c1ccc(O)c(C(O)c2ccccn2)c1 (stereo not drawn)
TGI [1]: > 100 µM
TGI [2]: > 100 µM

O=C(CSc1nc2ccccc2c(=O)n1-c1ccccc1)N=Nc1c(O)[nH]c2ccc(Br)cc12
TGI [1]: 16.9 µM
TGI [2]: 10.8 µM
TGI [4]: > 20.6 µM

O=C(Nc1ccc(Cl)cc1)c1cc(S(=O)(=O)Nc2nc3ncccc3[nH]2)c(SSc2cc(Cl)c(C(=O)Nc3ccc(Cl)cc3)cc2S(=O)(=O)Nc2nc3ncccc3[nH]2)cc1Cl
TGI [1]: > 100 µM
TGI [2]: > 100 µM
TGI [3]: > 100 µM
TGI [4]: > 100 µM

Cc1cc2c(cc1Cl)SSc1cc(Cl)c(C)cc1S(=O)(=O)Nc1nc(N)nn1C(O)n1nc(N)nc1NS2(=O)=O
TGI [1]: > 10 µM
TGI [2]: > 10 µM
TGI [3]: > 10 µM
TGI [4]: > 10 µM

CC(=O)Oc1ccc2c(c1)O/C(=C\c1ccc(N(C)C)cc1)C2=O
TGI [1]: > 100 µM
TGI [2]: > 100 µM
TGI [3]: > 100 µM
TGI [4]: > 100 µM

CC1(N2CCOCC2)CC2C(=[N+]1[O-])CCC/C2=N/O (stereo not drawn)
TGI [1]: > 100 µM
TGI [2]: > 100 µM
TGI [3]: > 100 µM
TGI [4]: > 100 µM

CCOC(=O)Cn1nnc2ccc(Nc3nc4ccccc4nc3C(=O)OCC)cc21
TGI [1]: > 100 µM
TGI [2]: > 100 µM
TGI [3]: > 100 µM
TGI [4]: > 100 µM

C#CCOC(=O)C=[N+]=[N-]
TGI [1]: > 10 µM
TGI [2]: > 10 µM

COC(=O)/C(=C(/C)c1ccco1)P(=O)(OC)OC
TGI [2]: > 100 µM
TGI [3]: > 100 µM
TGI [4]: > 100 µM

CCCCOc1ccc(/C=C/C2=[N+](CCO)CCO2)cc1
TGI [1]: > 100 µM
TGI [2]: > 100 µM
TGI [3]: > 100 µM
TGI [4]: > 100 µM

O=C1CC(Nc2ccccc2)c2c(Cl)sc(Cl)c21 (stereo not drawn)
TGI [1]: 3.33 µM
TGI [2]: 3.75 µM
TGI [3]: 4.21 µM
TGI [4]: 16.8 µM

c1ccc(CCCN2C3CCC2CN(CCOC(c2ccccc2)c2ccccc2)C3)cc1
TGI [1]: 25.9 µM
TGI [2]: 23.6 µM
TGI [3]: 28.4 µM
TGI [4]: 11.8 µM

O=C1C(NS(=O)(=O)c2ccccc2)=C(n2ccnc2)C(=O)c2ccccc21
TGI [1]: > 100 µM
TGI [2]: > 100 µM
TGI [3]: > 100 µM
TGI [4]: > 100 µM

O=c1[nH]c2c(C(F)(F)F)c(Cl)c(-c3ccccc3)nc2o1
TGI [1]: 44.8 µM
TGI [2]: 52.1 µM
TGI [3]: 69.5 µM
TGI [4]: > 100 µM

O=S(=O)(O)c1cc(O)c(N=NC2S(=O)(=O)OCCOS2(=O)=O)c2ccccc12
TGI [1]: > 100 µM
TGI [2]: > 100 µM
TGI [3]: > 100 µM
TGI [4]: > 100 µM

CC1=C[C@H](C[C@]2(C)c3c(c4c(C)cccc4oc3=O)O[C@@H]2C)OC1=O
TGI [1]: > 100 µM
TGI [2]: > 100 µM
TGI [4]: > 100 µM

CCN(CC)C1=Nc2ccccc2-n2ccnc2C1
TGI [1]: > 100 µM
TGI [2]: > 100 µM
TGI [3]: > 100 µM
TGI [4]: > 100 µM

COc1cc2ncnc(Nc3cccc(Br)c3)c2cc1OC
TGI [1]: > 42.9 µM
TGI [2]: 28.7 µM
TGI [3]: > 49.8 µM
TGI [4]: 5.67 µM

CCOP(=O)(OCC)/C(C#N)=C/c1nc[nH]c1C
TGI [1]: > 100 µM
TGI [2]: > 100 µM
TGI [3]: > 100 µM
TGI [4]: > 100 µM

COc1nc2ncc([C@@H](OC(C)=O)[C@@H](COC(C)=O)OC(C)=O)nc2c(=O)n1C
TGI [1]: > 100 µM
TGI [3]: > 100 µM
TGI [4]: > 100 µM

O=c1[nH]nc(-c2ccc3ccccc3c2)[nH]1
TGI [1]: > 100 µM
TGI [2]: > 100 µM
TGI [3]: > 100 µM

CCN(CC)P(=O)(c1ccc2c(c1)OCCOCCOCCOCCO2)N(CC)CC
TGI [1]: > 100 µM
TGI [2]: > 100 µM
TGI [4]: > 100 µM

C[C@]12CC[C@H]3[C@@H](CC=C4C[C@@H](N5CCCC5)CC[C@@]43C)[C@@H]1C/C(=C\c1ccc([N+](=O)[O-])cc1)[C@@H]2O
TGI [2]: 37.4 µM
TGI [3]: 25.4 µM
TGI [4]: 28.3 µM

CN(C)N1C(=C(C#N)C#N)C(c2ccccc2)CC1C#N (stereo not drawn)
TGI [1]: > 100 µM
TGI [2]: > 100 µM
TGI [4]: > 100 µM

Cc1cc2c3c(c1)S(=O)(=O)c1cc(Cl)ccc1N3CCC2
TGI [1]: > 100 µM
TGI [3]: > 100 µM
TGI [4]: > 100 µM

C[C@]12C(=O)OC[C@H](c3ccccc3)N1C(=O)N(Cc1ccccc1)[C@@H]2CO
TGI [1]: > 100 µM
TGI [3]: > 100 µM
TGI [4]: > 100 µM

COc1cc2c(c3nc4ccccc4nc13)-c1ccc(SC)c(=O)cc1[C@@H](NC(C)=O)CC2
TGI [2]: 0.066 µM
TGI [3]: > 69.2 µM
TGI [4]: > 100 µM

C[C@]12CCC(=O)C=C1CC[C@@H]1[C@@H]2CC[C@]2(C)C(=O)/C(=C/c3ccc([N+](=O)[O-])cc3)C[C@@H]12
TGI [1]: > 100 µM
TGI [2]: > 100 µM
TGI [4]: > 100 µM

CN(C)c1ccc(-c2c(C#N)c(-c3ccccc3)n(NS(=O)(=O)c3ccccc3)c(=O)c2C#N)cc1
TGI [1]: > 100 µM
TGI [3]: > 100 µM
TGI [4]: 46.8 µM

COc1cc(OC)c(-n2[nH]c(=O)n(C)c2=O)c(OC)c1
TGI [1]: > 100 µM
TGI [2]: > 100 µM
TGI [3]: > 100 µM
